Data from US20120219613A1 (priority 2009, published 2012).

Experiments:
[1] = tested on: Murine Leukemia; test: cells; format: cell-based, F57; conditions: Mus musculus, read-out: Activity
[2] = tested on: Cowpox; test: organism not typed; format: cell-based, Brighton; conditions: read-out: Activity
[3] = tested on: Ebola; test: microbe, parasite or virus in culture; format: cell-based; conditions: Zaire ebolavirus, read-out: Activity
[4] = tested on: pVSV particles
[5] = tested on: Reovirus; test: microbe, parasite or virus in culture; format: cell-based; conditions: Reovirus sp., read-out: Activity
[6] = tested on: Vaccinia; test: microbe, parasite or virus in culture; format: cell-based, VTF1.1; conditions: Orthopoxvirus vaccinia, read-out: Activity
[7] = tested on: RSSE; test: organism not typed; format: cell-based, Russian Spring Summer Encephalitis, Sofiin; conditions: read-out: Activity
[8] = tested on: Marburg; test: organism not typed; format: cell-based, Musoke/Ravn; conditions: read-out: Activity
[9] = tested on: Omsk; test: organism not typed; format: cell-based, Omsk Hemorrhagic Fever, Guriev; conditions: read-out: Activity
[10] = tested on: PIV-5; test: organism not typed; format: cell-based; conditions: read-out: Activity
[11] = tested on: West Nile Virus; test: microbe, parasite or virus in culture; format: cell-based; conditions: read-out: Activity
[12] = tested on: HPIV-3; test: microbe, parasite or virus in culture; format: cell-based; conditions: Human respirovirus 3, read-out: Activity
[13] = tested on: RVFV MP-12; format: cell-based, Rift Valley fever virus
[14] = tested on: Influenza A; test: microbe, parasite or virus in culture; format: cell-based, WSN H1N1; conditions: read-out: Activity
[15] = mouse, in vivo
[16] = tested on: VSV-G pseudotyped VSV; format: cell-based, Vesicular Stomatitis virus
[17] = tested on: NiV-pVSV; test: microbe, parasite or virus in culture; format: cell-based, Nipah virus envelope pseudotyped onto VSV
[18] = tested on: live VSV and NiV-pVSV; format: cell-based
[19] = tested on: NiV envelope mediated cell-cell fusion; format: cell-based
[20] = tested on: NiV-pseudotyped pVSV binding to ephrinB2; format: cell-based
[21] = tested on: VSV transcription; format: biochemical, VSV-Indiana
[22] = tested on: HIV-1 (JRCSF); format: cell-based
[23] = male, Sprague-Dawley, rat, in vivo
[24] = tested on: LaCrosse; test: organism not typed; format: cell-based; conditions: read-out: Activity
[25] = in vivo; conditions: male, Sprague-Dawley, rat, ip
[26] = tested on: Junín; test: organism not typed; format: cell-based; conditions: read-out: Activity
[27] = tested on: Vero cells infected with pVSV; format: cell-based
[28] = tested on: Coxsackie B; test: organism not typed; format: cell-based; conditions: read-out: Activity
[29] = tested on: NiV-pVSV; format: cell-based
[30] = tested on: Adenovirus; test: microbe, parasite or virus in culture; format: cell-based; conditions: unidentified adenovirus, read-out: Activity
[31] = tested on: Vero cells; format: cell-based
[32] = tested on: pVSV; format: cell-based
[33] = tested on: Yellow Fever; test: organism not typed; format: cell-based, Asibi; conditions: read-out: Activity
[34] = tested on: HIV-1; test: microbe, parasite or virus in culture; format: cell-based; conditions: Human immunodeficiency virus 1, read-out: Activity
[35] = tested on: Hepatitis C Virus; test: microbe, parasite or virus in culture; format: cell-based; conditions: read-out: Activity
[36] = tested on: NiV VLPs; format: cell-based, Nipah virus
[37] = tested on: Vesicular; test: microbe, parasite or virus in culture; format: cell-based, Vesicular Stomatitis, Indiana
[38] = tested on: NDV; format: cell-based, Newcastle Disease, rNDV/F3aa-GFP
[39] = tested on: Vero cells
[40] = tested on: Rift Valley Fever; test: organism not typed; format: cell-based; conditions: read-out: Activity
[41] = tested on: Vero cells; remark: listed apart in the source
[42] = tested on: Nipah; test: organism not typed; format: cell-based, Malaysia

Q: Which results are given for `C=CCN1C(=O)/C(=C/c2ccc(-c3ccccc3)o2)SC1=S` [LJ-001, (Z)-3-Allyl-5-(5-phenyl-2-furyl)methylene-4-oxothiazolidine-2-thione]?
A: IC50 [1]: 0.5 to 1 µM; IC50 [2]: 1 to 5 µM; IC50 [3]: 0.5 to 1 µM; virion membrane morphology by EM [4]: significant distortion of the viral membrane; IC50 [5]: > 10 µM; IC50 [6]: 0.5 to 1 µM; IC50 [7]: 0.5 to 1 µM; IC50 [8]: 0.5 to 1 µM; IC50 [9]: 0.5 to 1 µM; IC50 [10]: 0.5 to 1 µM; IC50 [11]: < 0.5 µM; IC50 [12]: 0.5 to 1 µM; infectivity of gradient fractions [13]: completely non-infectious; reduction in infectivity [13]: ≥ 5 log; IC50 [14]: < 0.5 µM; complete blood counts with differential [15]: no difference relative to the vehicle control group; hematocrit and hemoglobin levels [15]: normal; liver function tests, kidney function tests, serum electrolytes [15]: all normal and equivalent to the vehicle control mice; serum cholesterol levels [15]: statistically significant elevation; serum metabolites (glucose, phosphate, triglycerides) [15]: normal; weight loss [15]: < 10%; reporter virus entry via Vesicular Stomatitis virus envelope proteins (VSV-G) [16]: inhibited reporter virus entry; effect of pre-treatment temperature and duration on antiviral activity [17]: no significant effect; reporter virus entry via Nipah virus envelope (NiV-F/G) [17]: inhibited reporter virus entry; IC50 ([17]; Vesicular stomatitis virus, Vero, read-out: in vitro IC50 concentrations): ~1 µM; infectivity of treated virus after 4 h PBS wash and secondary repurification [18]: remained non-infectious; infectivity of treated virus after washing and repurification [18]: non-infectious; NiV envelope mediated cell-cell fusion [19]: did not inhibit; virus-cell binding [20]: still bound cognate cell surface receptors; viral transcription, mRNA production, and mRNA capping of VSV [21]: unaffected; sensitivity of passaged virus to compound [22]: no evidence of decreased sensitivity; peak serum concentration, 20 mg/kg group versus 50 mg/kg group [23]: higher peak serum concentration than the 50 mg/kg group; time until serum levels approach in vitro IC50 concentrations ([23]; ip): about 2 hours; IC50 [24]: < 0.5 µM; half-life [25]: ~4 h; IC50 [26]: 0.5 to 1 µM; inhibitory effect after washing pre-treated target cells [27]: Washing the cells reversed the inhibitory effect; IC50 [28]: > 10 µM; effect of compound pre-incubated with saturating liposomes on viral infection [29]: no effect on viral infection; effect of excess liposomes, virus pre-exposed to compound [29]: no longer able to rescue viral infection; effect of liposome size on binding or reversal of inhibition [29]: no effect; effect of liposomes, virus and liposomes simultaneously subjected to compound [29]: competed off virus infection; IC50 [30]: > 10 µM; intercalation into cellular membranes [31]: dose-dependent increase in fluorescence; inhibitory effect versus time of addition [32]: apparent only when the compound was added before or during, but not after, the viral infection period; IC50 [33]: < 0.5 µM; IC50 [34]: 0.5 to 1 µM; IC50 [35]: < 0.5 µM; cytoplasmic delivery of beta-lactamase matrix fusion protein [36]: inhibited cytoplasmic delivery; infection and infectious spread of live VSV [37]: inhibit infection and infectious spread; IC50 ([37]; Vesicular stomatitis virus, read-out: Activity): 0.5 to 1 µM; IC50 [38]: 0.5 to 1 µM; toxic effects in AK and LD enzyme release assays [39]: little to no toxic effects; IC50 [40]: < 0.5 µM; active cell metabolism (Alamar Blue uptake) [41]: no effect on active cell metabolism; infection and infectious spread of live NiV [42]: inhibit infection and infectious spread; IC50 ([42]; read-out: Activity): 0.5 to 1 µM
